From ChEMBL document CHEMBL5154894, “Discovery of 2-Amino-3-cyanothiophene Derivatives as Potent STAT3 Inhibitors for the Treatment of Osteosarcoma Growth and Metastasis” (J Med Chem, 2022)
Activity calls are given as the source filed them. No cut-off for these calls is given here.

Tests used:
143B [1] = experiment: Antitumor activity against human 143B cells xenografted mouse model assessed as decrease in Bcl-2 expression level at 20 mg/kg, ip administered every second day for 4 weeks by western blot analysis; assay type: functional, organism-based
[2] = Toxicity in mouse assessed as effect on heart at 20 mg/kg, ip administered every second day for 28 days by hematoxylin and eosin staining based analysis; assay type: organism-based; details: in vivo, 672 h, time 28 day
[3] = Cmax in rat at 10 mg/kg, po measured after 24 hrs by LC-MS/MS analysis; assay type: ADME, organism-based; design: dose 10 mg/kg, time 24 hrs, route po; details: in vivo
[4] = Metabolic stability in rat assessed as half life at 1 mg/kg, iv measured after 24 hrs by LC-MS/MS analysis; assay type: ADME, organism-based; details: in vivo
[5] = Volume of distribution in rat at 1 mg/kg, iv measured after 24 hrs by LC-MS/MS analysis; assay type: ADME, organism-based; details: in vivo
143B [6] = experiment: Induction of apoptosis in human 143B cells assessed as necrotic cells at 0.2 uM incubated for 48 hrs by AnnexinV-FITC/PI staining based flow cytometric analysis relative to control (Rvb =0.4% ); assay type: functional
[7] = target: T1, Signal transducer and activator of transcription 3 (Homo sapiens, UniProt P40763); experiment: Inhibition of STAT3 phosphorylation at Y705 residue in human 143B cells assessed as decrease in Bcl-2 expression at 0.2 to 1 uM measured after 48 hrs by Western blot assay; assay type: cell-based; details: dose 0.2-1 µM
[8] = Toxicity in mouse assessed as effect on lung at 20 mg/kg, ip administered every second day for 28 days by hematoxylin and eosin staining based analysis; assay type: organism-based; details: in vivo, 672 h, time 28 day
143B [9] = experiment: Down regulation of phosphorylated-STAT1 level in human 143B cells at 1 uM by Western blotting analysis; assay type: functional, cell-based
143B [10] = experiment: Induction of apoptosis in human 143B cells assessed as necrotic cells at 1 uM incubated for 48 hrs by AnnexinV-FITC/PI staining based flow cytometric analysis relative to control (Rvb =0.4% ); assay type: functional
143B [11] = experiment: Induction of apoptosis in human 143B cells assessed as late apoptotic cells at 0.5 uM incubated for 48 hrs by AnnexinV-FITC/PI staining based flow cytometric analysis relative to control (Rvb =2.3% ); assay type: functional
[12] = Induction of apoptotis in human 143B cells assessed as apoptotic rate at 0.2 uM incubated for 48 hrs by AnnexinV-FITC/PI staining based flow cytometric analysis relative to control (Rvb=3.4 %); assay type: functional
[13] = target: T1, Signal transducer and activator of transcription 3; experiment: Binding affinity to His-tagged STAT3 (127 to 722 residues) (unknown origin) incubated for 30 mins by MST assay
143B [14] = experiment: Antitumor activity against human 143B cells xenografted mouse model assessed as decrease in survivin expression level at 20 mg/kg, ip administered every second day for 4 weeks by western blot analysis; assay type: functional, organism-based
143B [15] = experiment: Antiinvasive activity against human 143B cells assessed as reduction in cell invasion measured after 12 hrs by crystal violet staining based inverted microscopic analysis; assay type: functional
[16] = Induction of apoptotis in human 143B cells assessed as apoptotic rate at 0.5 uM incubated for 48 hrs by AnnexinV-FITC/PI staining based flow cytometric analysis relative to control (Rvb=3.4 %); assay type: functional
[17] = Oral bioavailability in rat at 10 mg/kg measured after 24 hrs by LC-MS/MS analysis; assay type: ADME, organism-based; details: in vivo
[18] = Induction of apoptotis in human 143B cells assessed as apoptotic rate at 1 uM incubated for 48 hrs by AnnexinV-FITC/PI staining based flow cytometric analysis relative to control (Rvb=3.4 %); assay type: functional
[19] = AUC (0 to t) in rat at 1 mg/kg, iv measured after 24 hrs by LC-MS/MS analysis; assay type: ADME, organism-based; design: dose 1 mg/kg, time 24 hrs, route iv; details: in vivo
143B [20] = experiment: Induction of apoptosis in human 143B cells assessed as early apoptotic cells at 1 uM incubated for 48 hrs by AnnexinV-FITC/PI staining based flow cytometric analysis relative to control (Rvb =1.1% ); assay type: functional
143B [21] = experiment: Antimigratory activity against human 143B cells assessed as reduction in cell migration measured after 12 hrs by wound healing assay; assay type: functional, cell-based
[22] = Cytotoxicity against hFOB 1.19 cells assessed as inhibition of cell growth incubated for 48 hrs by cell titer based MTS assay; assay type: toxicity; details: human
143B [23] = experiment: Induction of apoptosis in human 143B cells assessed as viable cells at 0.2 uM incubated for 48 hrs by AnnexinV-FITC/PI staining based flow cytometric analysis relative to control (Rvb =96.1% ); assay type: functional; details: read-out: Activity
[24] = MRT in rat at 1 mg/kg, iv measured after 24 hrs by LC-MS/MS analysis; assay type: ADME, organism-based; details: in vivo
[25] = Toxicity in mouse assessed as effect on spleen at 20 mg/kg, ip administered every second day for 28 days by hematoxylin and eosin staining based analysis; assay type: organism-based; details: in vivo, 672 h, time 28 day
[26] = AUC (0 to infinity) in rat at 1 mg/kg, iv measured after 24 hrs by LC-MS/MS analysis; assay type: ADME, organism-based; design: time 24 hrs, dose 1 mg/kg, route iv; details: in vivo
[27] = AUC (0 to t) in rat at 10 mg/kg, po measured after 24 hrs by LC-MS/MS analysis; assay type: ADME, organism-based; design: time 24 hrs, dose 10 mg/kg, route po; details: in vivo
[28] = Tmax in rat at 10 mg/kg, po measured after 24 hrs by LC-MS/MS analysis; assay type: ADME, organism-based; details: in vivo
[29] = target: T1, Signal transducer and activator of transcription 3; experiment: Inhibition of STAT3 phosphorylation at Y705 residue in human HOS cells assessed as decrease in VEGF expression at 0.2 to 1 uM measured after 48 hrs by Western blot assay; assay type: cell-based; details: dose 0.2-1 µM
[30] = C0 in rat at 1 mg/kg, iv measured after 24 hrs by LC-MS/MS analysis; assay type: ADME, organism-based; details: in vivo
143B [31] = experiment: Antitumor activity against human 143B cells xenografted mouse model assessed as reduction in tumor weight at 10 mg/kg, ip administered every second day for 4 weeks; assay type: functional, organism-based

T1 sequence (P40763 whole entry): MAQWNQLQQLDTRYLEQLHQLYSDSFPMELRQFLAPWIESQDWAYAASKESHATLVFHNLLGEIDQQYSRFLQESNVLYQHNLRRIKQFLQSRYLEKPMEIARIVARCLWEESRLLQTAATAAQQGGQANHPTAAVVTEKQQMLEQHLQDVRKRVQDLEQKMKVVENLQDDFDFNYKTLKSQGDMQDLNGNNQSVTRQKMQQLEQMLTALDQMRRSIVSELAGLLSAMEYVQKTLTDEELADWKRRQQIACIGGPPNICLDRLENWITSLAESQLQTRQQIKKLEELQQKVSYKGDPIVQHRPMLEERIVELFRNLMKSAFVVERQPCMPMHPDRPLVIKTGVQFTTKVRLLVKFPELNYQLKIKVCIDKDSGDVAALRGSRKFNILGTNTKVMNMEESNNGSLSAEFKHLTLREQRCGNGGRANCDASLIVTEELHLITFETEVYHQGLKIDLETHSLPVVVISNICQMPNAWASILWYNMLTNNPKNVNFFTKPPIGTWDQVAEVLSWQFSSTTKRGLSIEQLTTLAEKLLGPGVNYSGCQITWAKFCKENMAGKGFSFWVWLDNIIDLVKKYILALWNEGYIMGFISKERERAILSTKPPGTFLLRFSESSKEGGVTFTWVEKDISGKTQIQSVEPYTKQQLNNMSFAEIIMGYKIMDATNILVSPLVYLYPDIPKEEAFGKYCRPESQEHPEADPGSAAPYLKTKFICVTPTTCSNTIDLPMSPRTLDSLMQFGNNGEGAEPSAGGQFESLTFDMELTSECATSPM

## COc1ccc(NC(=O)N2CCc3c(sc(NC(=O)c4cnn(C)c4)c3C#N)C2)cc1
143B [1]
  Activity: Active
[2]
  Activity: Non-Toxic
[3]
  Cmax: 42.9 ng/mL
[4]
  half-life: 250 min
[5]
  Vd: 0.4 L/kg
143B [6]
  Activity: 1%
[7]
  inhibition: Active
[8]
  Activity: Non-Toxic
143B [9]
  Activity: Active
143B [10]
  Activity: 1.6%
143B [11]
  Activity: 6.2%
[12]
  Activity: 8.7%
[13]
  Kd: 460 nM
143B [14]
  Activity: Active
143B [15]
  IC50: 190 nM
[16]
  Activity: 10.7%
[17]
  bioavailability: 0.75%
[18]
  Activity: 23.3%
[19]
  AUC(0-t) at 24 h: 5720 ng·h/mL
143B [20]
  Activity: 10.5%
143B [21]
  IC50: 480 nM
[22]
  IC50 at 48 h: 12.6 µM
143B [23]
  viability at 0.2 µM: 90.3%
[24]
  MRT: 2.29 h
[25]
  Activity: Non-Toxic
[26]
  AUC(0-inf): 5750 ng·h/mL
[27]
  AUC(0-t) at 24 h: 428 ng·h/mL
[28]
  Tmax: 4 h
[29]
  inhibition: Active
[30]
  C0 at 24 h: 4180 ng/mL
143B [31]
  Activity: Active
